The values that follow come from patent EP4778922A1, “BICYCLIC COMPOUND, AND PREPARATION METHOD THEREFOR AND PHARMACEUTICAL USE THEREOF” (Shanghai Jeyou Pharmaceutical Co., Ltd., priority 2023, dated 2025).

The test system of one data set is 22RV1 cells. Nature of the data set: Cell proliferation inhibition assay in 22RV1 cells (CellTiter-Glo, 7 days). The settings on record: Homo sapiens, 22Rv1, 168 h. It is filed as cell-based, human. The gist of the method: (§1)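 LNCaP and 22RV1 human prostate cancer cells, 3000 per well, exposed to graded compound for 7 days at 37°C, 5% CO2; LNCaP got 0.2 nM DHT 1 h after compound. Viability by CellTiter-Glo luminescence; IC50 from four-parameter variable-slope fit.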

Another data set addresses T1, CYP2C8 (Homo sapiens, UniProt P10632).
T1 construct: co-incubated with human liver microsomes; from tissue; host or cells: human liver microsomes
T1 sequence (P10632 1-490): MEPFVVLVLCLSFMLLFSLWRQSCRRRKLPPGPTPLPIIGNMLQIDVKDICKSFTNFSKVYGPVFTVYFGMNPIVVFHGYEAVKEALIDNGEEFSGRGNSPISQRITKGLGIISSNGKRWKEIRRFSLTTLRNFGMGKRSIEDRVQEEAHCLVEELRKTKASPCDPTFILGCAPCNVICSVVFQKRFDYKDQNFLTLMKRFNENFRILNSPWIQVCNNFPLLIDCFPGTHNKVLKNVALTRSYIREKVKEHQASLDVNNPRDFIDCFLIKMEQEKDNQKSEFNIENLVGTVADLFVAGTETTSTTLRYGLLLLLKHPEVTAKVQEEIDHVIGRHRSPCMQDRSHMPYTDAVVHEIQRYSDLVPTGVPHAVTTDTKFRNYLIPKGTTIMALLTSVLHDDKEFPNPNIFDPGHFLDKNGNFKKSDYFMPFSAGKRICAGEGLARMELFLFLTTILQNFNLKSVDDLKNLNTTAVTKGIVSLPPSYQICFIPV
The data set can be described thus: CYP inhibition assay in human liver microsomes. In kind it is in vitro ADME. As to conditions: human liver microsomes, NADPH; read-out: CYPs 2C8 (IC50). The procedure: (§2) Test Example 3: CYP Inhibition Assay
(§3) An in vitro assay system was used to evaluate the effects of the compounds on the activities of several human liver microsomal cytochrome P450 (CYP) isozymes (CYP1A2, CYP2C9, CYP2D6, CYP3A4 (testosterone/midazolam), CYP2C19, and CYP2C8). Specific probe substrates for CYP450 isozymes were co-incubated with human liver microsomes and the compound at various concentrations (0, 0.0300, 0.100, 0.300, 1.00, 3.00, 10.0 µM). The reaction was initiated by adding the coenzyme NADPH. After the reaction was completed, the samples were processed, and the metabolites generated from the probe substrates were detected by liquid chromatography-tandem mass spectrometry (LC-MS/MS). Based on the resulting dose-response curves, the IC50 values of the test compounds for the probe substrate reactions catalyzed by each CYP isozyme were calculated.
In general terms: Microsomes from liver hold many membrane-bound enzymes, among them those of drug oxidation.

For data set [1], the target named is T2, CYP3A4 (testosterone/midazolam) (Homo sapiens, UniProt P08684).
T2 construct: co-incubated with human liver microsomes; from tissue; host or cells: human liver microsomes
T2 sequence (P08684 whole entry): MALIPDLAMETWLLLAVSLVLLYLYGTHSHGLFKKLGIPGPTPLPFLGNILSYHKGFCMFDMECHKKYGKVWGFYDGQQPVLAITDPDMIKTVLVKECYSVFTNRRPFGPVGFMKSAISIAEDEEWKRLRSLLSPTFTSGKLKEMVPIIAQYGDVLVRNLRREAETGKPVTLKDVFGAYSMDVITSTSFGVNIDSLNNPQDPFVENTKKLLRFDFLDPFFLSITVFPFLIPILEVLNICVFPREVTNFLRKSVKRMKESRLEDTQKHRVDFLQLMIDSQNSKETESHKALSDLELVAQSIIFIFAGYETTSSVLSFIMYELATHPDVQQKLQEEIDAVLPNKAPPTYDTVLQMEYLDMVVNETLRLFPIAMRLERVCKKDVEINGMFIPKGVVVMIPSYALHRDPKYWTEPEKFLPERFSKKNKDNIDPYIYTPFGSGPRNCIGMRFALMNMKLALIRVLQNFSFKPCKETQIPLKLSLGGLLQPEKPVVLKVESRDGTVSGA
Nature of the data set: CYP inhibition assay in human liver microsomes. In kind it is in vitro ADME. The procedure: as §2, §3

For a further data set, the target named is T3, CYP2C9 (Homo sapiens, UniProt P11712).
T3 construct: co-incubated with human liver microsomes; from tissue; host or cells: human liver microsomes
T3 sequence (P11712 whole entry): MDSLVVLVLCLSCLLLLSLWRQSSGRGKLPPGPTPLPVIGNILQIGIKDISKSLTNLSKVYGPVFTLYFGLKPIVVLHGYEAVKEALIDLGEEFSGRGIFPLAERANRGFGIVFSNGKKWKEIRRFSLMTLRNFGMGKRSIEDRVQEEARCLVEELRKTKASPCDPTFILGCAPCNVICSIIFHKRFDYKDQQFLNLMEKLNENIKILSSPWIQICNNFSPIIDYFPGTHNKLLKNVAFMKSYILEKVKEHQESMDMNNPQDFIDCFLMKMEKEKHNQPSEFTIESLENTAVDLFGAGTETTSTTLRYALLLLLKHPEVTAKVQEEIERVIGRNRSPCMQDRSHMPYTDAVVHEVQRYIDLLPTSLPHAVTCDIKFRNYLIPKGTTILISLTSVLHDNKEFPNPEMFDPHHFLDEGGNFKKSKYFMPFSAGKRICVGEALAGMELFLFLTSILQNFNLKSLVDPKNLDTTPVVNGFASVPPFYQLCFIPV
Nature of the data set: CYP inhibition assay in human liver microsomes. It is filed as in vitro ADME. As to conditions: human liver microsomes, NADPH; read-out: CYPs 2C9 (IC50). The protocol:
as §2, §3

In a further data set the target is T4, CYP2C19 (Homo sapiens, UniProt P33261).
T4 construct: co-incubated with human liver microsomes; from tissue; host or cells: human liver microsomes
T4 sequence (P33261 whole entry): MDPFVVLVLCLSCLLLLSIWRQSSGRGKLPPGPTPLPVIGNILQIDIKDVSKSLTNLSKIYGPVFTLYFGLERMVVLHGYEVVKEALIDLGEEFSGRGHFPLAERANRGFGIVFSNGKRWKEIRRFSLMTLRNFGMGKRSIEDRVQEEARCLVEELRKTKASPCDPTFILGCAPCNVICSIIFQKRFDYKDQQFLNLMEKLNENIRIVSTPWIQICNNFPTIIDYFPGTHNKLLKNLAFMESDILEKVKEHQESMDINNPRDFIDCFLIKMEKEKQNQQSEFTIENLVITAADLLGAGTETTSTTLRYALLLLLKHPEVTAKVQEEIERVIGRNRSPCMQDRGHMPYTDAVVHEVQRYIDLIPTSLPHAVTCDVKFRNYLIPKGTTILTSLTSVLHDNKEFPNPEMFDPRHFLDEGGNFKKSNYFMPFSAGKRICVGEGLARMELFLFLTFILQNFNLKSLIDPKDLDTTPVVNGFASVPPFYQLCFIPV
Nature of the data set: CYP inhibition assay in human liver microsomes. In kind it is in vitro ADME. The settings on record: human liver microsomes, NADPH; read-out: CYPs 2C19 (IC50). The protocol: as §2, §3

Data set [2] can be described thus: Mouse pharmacokinetic test. The settings on record: plasma; for Tmax: read-out: Tmax. It is filed as in vivo, ICR mice. The gist of the method:
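Male naive ICR mice (25–30 g, n=3 per route) received a single intravenous or oral dose, with feeding resumed 4 h post-dose. Blood was centrifuged at 4°C, and plasma was stored at -80°C until analysis.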

The next data set has as its system LNCaP cells. Nature of the data set: Cell proliferation inhibition assay in LNCaP cells (0.2 nM DHT, CellTiter-Glo, 7 days). It is filed as cell-based, human. As to conditions: Homo sapiens, LNCaP, 168 h. The gist of the method:
as §1

[3] abbreviates: probe substrate midazolam, read-out: CYPs 3A4 (Midazolam) (IC50).
Where [4] appears, read: probe substrate testosterone, read-out: CYPs 3A4 (Testosterone) (IC50).

Each structure is given as a SMILES string. Read-outs that look alike come from different tables or passages of the source.

As usually defined, the IC50 is the point on the concentration scale where inhibition reaches its midpoint. For orientation: clearance means the rate of elimination divided by the concentration. A high value points to efficient removal. The bioavailability is the share of a dose that reaches the circulation, judged against a reference dose that is usually intravenous. Broadly, the AUC(0-inf) is the area under the concentration-time curve extrapolated to infinity. A lower AUC(0-inf) goes with less exposure. The half-life is the time in which the quantity being followed falls by half. In general, Cmax refers to the highest concentration seen after dosing. Usually Tmax stands for the time at which the peak concentration occurs. Turning to `CC(C)(c1ccc(-c2ccc(OCc3ccnc(N4CC(S(C)(=O)=O)C4)n3)nc2)cc1)c1cc(Cl)c(OCCCl)c(C#N)c1` [Compound 207], the IC50 in the data set on 22RV1 cells is 0.34 µM; on CYP2C8, over 10 µM; in data set [1] (setting [3]), over 10 µM; in data set [1] (setting [4]) it was over 10 µM; at CYP2C9, over 10 µM; at CYP2C19 it was over 10 µM. This compound displayed a C0 in data set [2] (0.5 mg/kg, IV-0.5mpk) of 1620 ng/mL. This compound gave a clearance in data set [2] (0.5 mg/kg, IV-0.5mpk) of 1.1 mL/min/kg. This compound returned a bioavailability in data set [2] (30 mg/kg, PO-30mpk vs IV-0.5mpk) of 97.7%. Further, the AUC(0-inf) in data set [2] (iv, 0.5 mg/kg, IV-0.5mpk) worked out at 7.61 µg·h/mL; in data set [2] (po, 30 mg/kg, PO-30mpk), 446 µg·h/mL. Moreover, the half-life in data set [2] (iv, 0.5 mg/kg, IV-0.5mpk) is 16.1 h; in data set [2] (po, 30 mg/kg, PO-30mpk) it was 9.8 h. Also, the Cmax in data set [2] (po, 30 mg/kg, PO-30mpk) was 33900 ng/mL. Further, the Tmax in data set [2] (po, 30 mg/kg, PO-30mpk) came to 3 h.
As to `CC(C)(c1ccc(-c2ccc(OCc3ccnc(N4CC5(CCS(=N)(=O)CC5)C4)n3)cc2)cc1)c1cc(Cl)c(OCCCl)c(C#N)c1` [Compound 289], the IC50 is 0.83 µM in the data set on 22RV1 cells; over 10 µM at CYP2C8; over 10 µM in data set [1] (setting [3]); over 10 µM in data set [1] (setting [4]); over 10 µM at CYP2C9; over 10 µM on CYP2C19. For the same compound, the AUC(0-inf) in data set [2] (po, 30 mg/kg, PO-30mpk) was 240 µg·h/mL. In data set [2] (po, 30 mg/kg, PO-30mpk), this compound returned a Cmax of 10000 ng/mL. This compound gave a half-life in data set [2] (po, 30 mg/kg, PO-30mpk) of 10.7 h. Moreover, the Tmax in data set [2] (po, 30 mg/kg, PO-30mpk) came out at 4 h.
As for `CC(C)(c1ccc(-c2ccc(OCC34CC(c5cnc(P(C)(C)=O)nc5)(C3)C4)cc2)cc1)c1cc(Cl)c(OCCCl)c(C#N)c1` [Compound 320], the 50% inhibitory concentration (IC50) is 0.079 µM in the data set with 22RV1 cells; 0.26 µM with LNCaP cells; 9.1 µM on CYP2C8; over 10 µM in data set [1] (setting [3]); over 10 µM in data set [1] (setting [4]); over 10 µM on CYP2C9. In addition, the IC50 at CYP2C19 was over 10 µM.
For the compound `CC(C)(c1ccc(-c2ncc(OCc3ccnc(N4CC(S(C)(=O)=O)C4)n3)cn2)cc1)c1cc(Cl)c(OCCCl)c(C#N)c1` [Compound 379], the IC50 with 22RV1 cells was 0.68 µM; with LNCaP cells, 0.12 µM; on CYP2C8, over 10 µM; in data set [1] (setting [3]), over 10 µM; in data set [1] (setting [4]) it was over 10 µM; on CYP2C9, over 10 µM. Also, the IC50 at CYP2C19 was over 10 µM.
Consider `CC(C)(c1ccc(-c2cnc(OCc3ccc(-c4ccc(P(C)(C)=O)nn4)cc3)cn2)cc1)c1cc(Cl)c(OCCCl)c(C#N)c1` [Compound 380], for which the IC50 was 0.23 µM with 22RV1 cells; 0.15 µM in the data set with LNCaP cells; over 10 µM at CYP2C8; over 10 µM in data set [1] (setting [3]); over 10 µM in data set [1] (setting [4]); over 10 µM on CYP2C9. The IC50 on CYP2C19 was over 10 µM.
Regarding `CC(C)(c1ccc(-c2cnc(OCc3ccc(-c4cnc(P(C)(C)=O)cn4)cc3)cn2)cc1)c1cc(Cl)c(OCCCl)c(C#N)c1` [Compound 381], the IC50 in the data set with 22RV1 cells was 0.35 µM; in the data set with LNCaP cells it was 0.11 µM; on CYP2C8 it was over 10 µM; in data set [1] (setting [3]) it was over 10 µM; in data set [1] (setting [4]), over 10 µM; at CYP2C9, 5.8 µM. Also, the IC50 at CYP2C19 is over 10 µM.
On to `CC(C)(c1ccc(-c2cnc(OCc3ccnc(N4CC(S(=O)(=O)C5CC5)C4)n3)cn2)cc1)c1cc(Cl)c(OCCCl)c(C#N)c1` [Compound 387], for which the IC50 in the data set on 22RV1 cells is 0.22 µM; in the data set on LNCaP cells it was 0.05 µM; on CYP2C8, over 10 µM; in data set [1] (setting [3]), over 10 µM; in data set [1] (setting [4]) it was over 10 µM; on CYP2C9, 1.9 µM. The IC50 on CYP2C19 is over 10 µM.
Take `CC(C)(c1ccc(-c2ncc(OCc3cnc(-c4cnc(P(C)(C)=O)nc4)cn3)cn2)cc1)c1cc(Cl)c(OCCCl)c(C#N)c1` [Compound 403]: the IC50 is 0.26 µM in the data set on LNCaP cells; 1.3 µM on CYP2C8; over 10 µM in data set [1] (setting [3]); over 10 µM in data set [1] (setting [4]); over 10 µM on CYP2C9; over 10 µM on CYP2C19.
